In article PMC11433937, “Privileged Scaffold Hybridization in the Design of Carbonic Anhydrase Inhibitors” (Molecules, 2024):

Tests used:
hCA I = hCA I (Homo sapiens, UniProt P00915); experiment: Stopped-flow CA-catalyzed CO2 hydration inhibition assay
hCA II = hCA II (Homo sapiens, UniProt P00918); experiment: as above
hCA IX [1] = molecular target: T1, hCA IX (Homo sapiens, UniProt Q16790); experiment: as above
hCA XII [2] = molecular target: T2, hCA XII (Homo sapiens, UniProt O43570); experiment: Stopped-flow CA-catalyzed CO2 hydration inhibition assay
hCA XII [3] = molecular target: T2, hCA XII; design: method as in PMID 27775452; settings: previously synthesized compound; cited from earlier work
hCA IX [4] = molecular target: T1, hCA IX; design: method as in PMID 27775452; settings: previously synthesized compound; cited from earlier work

hCA I, sequence (P00915 whole entry): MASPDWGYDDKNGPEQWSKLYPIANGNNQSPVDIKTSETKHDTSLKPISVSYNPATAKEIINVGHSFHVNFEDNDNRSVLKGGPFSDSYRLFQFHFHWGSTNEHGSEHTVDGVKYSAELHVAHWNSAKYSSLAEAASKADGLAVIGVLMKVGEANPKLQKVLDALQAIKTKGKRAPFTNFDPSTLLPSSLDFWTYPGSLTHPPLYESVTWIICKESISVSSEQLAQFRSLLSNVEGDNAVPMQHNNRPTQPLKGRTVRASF
T2 sequence (O43570 30-289 limits assumed): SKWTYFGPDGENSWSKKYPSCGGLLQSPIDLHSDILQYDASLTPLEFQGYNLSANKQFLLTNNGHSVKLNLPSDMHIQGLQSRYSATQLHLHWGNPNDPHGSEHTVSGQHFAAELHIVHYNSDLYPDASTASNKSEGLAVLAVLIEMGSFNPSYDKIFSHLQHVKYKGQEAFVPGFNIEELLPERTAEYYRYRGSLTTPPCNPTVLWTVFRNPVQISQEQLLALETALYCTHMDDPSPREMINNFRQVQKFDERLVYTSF

| Ki (hCA I) | Ki (hCA II) | Ki (hCA IX [1]) | melting point | Ki (hCA XII [2]) | selectivity index SI hCA II/hCA IX (hCA IX [1]; ratio of Ki hCA II to Ki hCA IX) | selectivity index SI hCA II/hCA XII (hCA XII [2]; ratio of Ki hCA II to Ki hCA XII) | SMILES | inhibitory activity against hCA XII (hCA XII [3]) | inhibitory activity against hCA IX (hCA IX [4]) |
| --- | --- | --- | --- | --- | --- | --- | --- | --- | --- |
| 4.59 µM | 246 nM | 99.4 nM | 314.2 to 316.1 °C | 61.1 nM | – | – | NS(=O)(=O)c1ccc(NN2C(=O)/C(=C3/C(=O)Nc4ccc(Cl)cc43)SC2=Nc2ccccc2)cc1 [5a, 4-((5-((Z)-5-chloro-2-oxoindolin-3-ylidene)-4-oxo-2-(phenylimino)thiazolidin-3-yl)amino)benzenesulfonamide] | – | – |
| 6.03 µM | 159 nM | 34.6 nM | 338.5 to 340 °C | 7.5 nM | – | – | NS(=O)(=O)c1ccc(NN2C(=O)/C(=C3/C(=O)Nc4ccc([N+](=O)[O-])cc43)SC2=Nc2ccccc2)cc1 [5b, 4-((5-((Z)-5-nitro-2-oxoindolin-3-ylidene)-4-oxo-2-(phenylimino)thiazolidin-3-yl)amino)benzenesulfonamide] | – | – |
| 5.88 µM | 6.9 nM | 23.1 nM | 297.5 to 299.8 °C | 21.8 nM | – | – | NS(=O)(=O)c1ccc(NN2C(=O)/C(=C3/C(=O)Nc4ccc(F)cc43)SC2=Nc2ccccc2)cc1 [5c, 4-((5-((Z)-5-fluoro-2-oxoindolin-3-ylidene)-4-oxo-2-(phenylimino)thiazolidin-3-yl)amino)benzenesulfonamide] | – | – |
| > 10 µM | 104 nM | 87.4 nM | 331.4 to 332.7 °C | 193 nM | – | – | NS(=O)(=O)c1ccc(NN2C(=O)/C(=C3/C(=O)Nc4ccc(Br)cc43)SC2=Nc2ccccc2)cc1 [5d, 4-((5-((Z)-5-bromo-2-oxoindolin-3-ylidene)-4-oxo-2-(phenylimino)thiazolidin-3-yl)amino)benzenesulfonamide] | – | – |
| 9.06 µM | 9.6 nM | 5 nM | 328.8 to 330.1 °C | 53.7 nM | – | – | COc1ccc2c(c1)/C(=C1/SC(=Nc3ccccc3)N(Nc3ccc(S(N)(=O)=O)cc3)C1=O)C(=O)N2 [5e, 4-((5-((Z)-5-methoxy-2-oxoindolin-3-ylidene)-4-oxo-2-(phenylimino)thiazolidin-3-yl)amino)benzenesulfonamide] | – | – |
| > 10 µM | 70.8 nM | 14.9 nM | 333.9 to 334.6 °C | 0.6 nM | 4.75 | 118 | Cc1ccc2c(c1)/C(=C1/SC(=Nc3ccccc3)N(Nc3ccc(S(N)(=O)=O)cc3)C1=O)C(=O)N2 [5f, 4-((5-((Z)-5-methyl-2-oxoindolin-3-ylidene)-4-oxo-2-(phenylimino)thiazolidin-3-yl)amino)benzenesulfonamide] | – | – |
| 5.28 µM | 9.6 nM | 2.5 nM | – | 16.8 nM | – | – | NS(=O)(=O)c1ccc(NN2C(=O)/C(=C3/C(=O)Nc4ccccc43)SC2=Nc2ccccc2)cc1 [5g, 4-((4-oxo-5-((Z)-2-oxoindolin-3-ylidene)-2-(phenylimino)thiazolidin-3-yl)amino)benzenesulfonamide] | – | – |
| 6.62 µM | 4.1 nM | 12.7 nM | 336.1 to 336.6 °C | 1.3 nM | – | – | NS(=O)(=O)c1ccc(NN2C(=O)/C(=C3/C(=O)Nc4c(F)cccc43)SC2=Nc2ccccc2)cc1 [5h, 4-((5-((Z)-7-fluoro-2-oxoindolin-3-ylidene)-4-oxo-2-(phenylimino)thiazolidin-3-yl)amino)benzenesulfonamide] | – | – |
| 7.69 µM | 17.8 nM | 50.3 nM | 344.9 to 346 °C | 94 nM | – | – | NS(=O)(=O)c1ccc(NN2C(=O)/C(=C3/C(=O)Nc4c(Br)cccc43)SC2=Nc2ccccc2)cc1 [5i, 4-((5-((Z)-7-bromo-2-oxoindolin-3-ylidene)-4-oxo-2-(phenylimino)thiazolidin-3-yl)amino)benzenesulfonamide] | – | – |
| – | – | – | – | – | – | – | CN1C(=O)/C(=C2/C(=O)Nc3c(F)cccc32)S/C1=N\c1ccc(S(N)(=O)=O)cc1 [EMAC10020m] | in the nanomolar range | in the nanomolar range |
